Results published in patent publication EP4745134A1 (Jiangsu Yahong Meditech Co., Ltd., priority 2023, dated 2025).
Where two headings read alike, the source gives them in different places.

Tests used:
MTAP-deficient HCT116 = experiment: Pharmacodynamic test in human colon cancer xenograft model (MTAP-deficient HCT116); type: in vivo; conditions: 100 mpk, orally by gavage once a day, HCT116 MTAP deficient mice xenograft
Procedure: The compounds (100 mpk, blank vehicle as a control) were orally administered to the HCT116 MTAP deficient mice (cell source: creative biogene-CSC-RT2701) of human colon cancer xenograft model by gavage daily during the experimental planning period. The positive compound AMG9747 was synthesized according to the method reported in the patent WO2021163344A1. The compounds were formulated as follows: weighing 100.00 mg of a test compound, adding it to 10 mL of 0.5% MC4000+0.2% Tween 80, vortexing and shaking to prepare a suspension, i.e., a dose of 100 mpk. Each group had 8 mice and was subjected to administration by gavage once a day. The tumor volume was measured once in groups before administration, and measured on days 3, 6, 10, 13, 16 and 19 respectively after administration. The positive drug (synthesized according to the patent WO2021163344A1) AMG-9747 was used as a control, and compound AMG-9747 has a structure of: [drawing 1174] Table 3. Percentage of inhibition of the compounds of the present invention on tumor growth in the human colon cancer xenograft (MTAP-deficient HCT116) model

PRMT5-MTA = PRMT5-MTA (Homo sapiens, UniProt O14744); experiment: Enzymatic inhibitory activity against PRMT5-MTA (AlphaScreen); type: biochemical
Summary of the method: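 PRMT5/[…] (1 nM) was preincubated for 30 min at room temperature with 1 µM […] and 2.5 µM SAM, then exposed to compound (10-point, 3-fold from 1000 nM) for 15 min at 23 °C. Histone H4 substrate (5 nM) was added and reacted for 45 min at 23 °C. Symmetric dimethyl-R3 H4 was detected by AlphaScreen and IC50 calculated.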

HCT116 MTAP KO cells = experiment: Inhibitory activity against cell proliferation (CellTiter Glo, 6 days), HCT116 MTAP KO; type: cell-based; conditions: for IC50: Homo sapiens, HCT-116, 144 h, HCT116 MTAP KO cells, 6 days, CellTiter Glo, read-out: HCT116 MTAP KO IC50; for Selectivity HCT 116-WT/ HCT116 MTAP KO: ratio of IC50 HCT116-WT / HCT116 MTAP KO
Summary of the method: (§1)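 HCT116 wild-type or MTAP-knockout cells (250/well, McCoy's 5A + 10% FBS) treated after overnight culture with 8-point 4-fold dilutions from 10000 nM for 6 days at 37 °C. Viability read by CellTiter Glo luminescence on day 7; IC50 calculated against DMSO controls.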

HCT116-WT cells = experiment: Inhibitory activity against cell proliferation (CellTiter Glo, 6 days), HCT116-WT; type: cell-based; conditions: 144 h, HCT116-WT cells, 6 days, CellTiter Glo; read-out: HCT116-WT IC50
Summary of the method: as §1

PRMT5-MTA, sequence (O14744 whole entry): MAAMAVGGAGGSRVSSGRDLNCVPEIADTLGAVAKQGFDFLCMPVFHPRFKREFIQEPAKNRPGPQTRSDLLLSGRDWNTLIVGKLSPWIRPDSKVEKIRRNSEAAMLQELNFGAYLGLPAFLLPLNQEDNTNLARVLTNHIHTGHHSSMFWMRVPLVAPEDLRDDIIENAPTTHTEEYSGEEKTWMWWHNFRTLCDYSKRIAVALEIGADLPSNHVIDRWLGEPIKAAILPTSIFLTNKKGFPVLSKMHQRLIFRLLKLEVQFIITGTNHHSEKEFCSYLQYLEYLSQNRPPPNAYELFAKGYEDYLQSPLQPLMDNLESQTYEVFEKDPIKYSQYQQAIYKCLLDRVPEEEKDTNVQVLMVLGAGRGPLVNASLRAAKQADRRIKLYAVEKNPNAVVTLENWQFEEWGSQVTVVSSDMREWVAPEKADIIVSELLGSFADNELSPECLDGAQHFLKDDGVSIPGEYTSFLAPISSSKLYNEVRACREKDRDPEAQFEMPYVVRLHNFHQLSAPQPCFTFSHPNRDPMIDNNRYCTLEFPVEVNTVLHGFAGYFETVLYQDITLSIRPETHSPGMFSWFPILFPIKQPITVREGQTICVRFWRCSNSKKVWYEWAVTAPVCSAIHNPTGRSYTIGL
PRMT5-MTA, sequence (Q9BQA1 whole entry partner): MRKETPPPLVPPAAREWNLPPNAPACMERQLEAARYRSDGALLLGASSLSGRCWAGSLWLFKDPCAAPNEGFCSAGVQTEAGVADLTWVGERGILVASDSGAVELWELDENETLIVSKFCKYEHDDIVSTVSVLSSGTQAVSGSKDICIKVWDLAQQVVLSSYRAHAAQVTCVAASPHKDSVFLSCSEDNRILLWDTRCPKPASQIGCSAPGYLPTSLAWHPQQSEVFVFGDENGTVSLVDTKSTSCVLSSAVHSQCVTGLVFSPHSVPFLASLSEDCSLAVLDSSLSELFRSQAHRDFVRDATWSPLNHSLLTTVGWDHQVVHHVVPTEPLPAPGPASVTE

SMILES	Percentage of tumor growth inhibition (MTAP-deficient HCT116) [%]	IC50 (PRMT5-MTA; read-out: IC50) [nM]	IC50 (HCT116 MTAP KO cells) [nM]	Selectivity HCT 116-WT/ HCT116 MTAP KO (HCT116 MTAP KO cells)	IC50 (HCT116-WT cells) [nM]	IC50 (PRMT5-MTA) [nM]
Cc1cc2cc(C(=O)N(Cc3ccc(C(F)(F)F)cn3)[C@H](C)c3ncccn3)ccc2nc1N [AMG-9747, reference compound]	68	–	–	–	–	–
Cc1cc2cc(C(=O)N(Cc3ccc(C(F)(F)F)cn3)N(C)c3ncccn3)ccc2nc1N [Example 1, 2-amino-N',3-dimethyl-N'-(pyrimidin-2-yl)-N-((5-(trifluoromethyl)pyridin-2-yl)methyl) quinoline-6-carbohydrazide]	80	1	32	19.47	623	–
Cc1cc2cc(C(=O)N(Cc3ccc(C(F)(F)F)cn3)N(c3ncccn3)C3CC3)ccc2nc1N [Example 3, 2-amino-N'-cyclopropyl-3-methyl-N'-(pyrimidin-2-yl)-N-((5-(trifluoromethyl)pyridin-2-yl)methyl)quinoline-6-carbohydrazide]	86	2.6	27	21.04	568	–
Cc1cc2cc(C(=O)N(Cc3ccc(-c4scnc4C)cn3)N(c3ncccn3)C3CC3)ccc2nc1N [Example 184, 2-amino-N'-cyclopropyl-3-methyl-N-((5-(4-methylthiazol-5-yl)pyridin-2-yl)methyl)-N'-(pyrimidin-2-yl)quinoline-6-carbohydrazide]	81	7.4	13	18.46	240	–
Cc1cc2cc(C(=O)N(Cc3ccc(-c4cnn(C(F)(F)F)c4)cn3)N(C)c3ncccn3)ccc2nc1N [Example 189, 2-amino-N',3-dimethyl-N'-(pyrimidin-2-yl)-N-((5-(1-(trifluoromethyl)-1H-pyrazol-4-yl)pyridin-2-yl)methyl)quinoline-6-carbohydrazide]	93	1.7	55	42.00	2310	–
Cc1cc2nc(N)c3cnn(C)c3c2cc1C(=O)N1CC(C)CN1c1ncc(Br)cc1F (centres unmarked) [Example 392, (4-amino-1,7-dimethyl-1H-pyrazolo[4,3-c]quinolin-8-yl)(2-(5-bromo-3-fluoropyridin-2-yl)-4-methylpyrazolidin-1-yl)metha none]	69	4	28	40.21	1130	–
Cc1cc2nc(N)c3cnn(C)c3c2cc1C(=O)N1CC(C)CN1c1ncc(-c2nncs2)cc1F (centres unmarked) [Example 487, (4-amino-1,7-dimethyl-1H-pyrazolo[4,3-c]quinolin-8-yl)(2-(3-fluoro-5-(1,3,4-thiadiazol-2-yl)pyridin-2-yl)-4-methylpyrazolidin-1-yl)methanone]	–	6.7	58	40.52	2350	–
Cc1cc2nc(N)c3cnn(C)c3c2cc1C(=O)N1CC(C)CN1c1ncc(-c2cscn2)cc1F (centres unmarked) [Example 488, (4-amino-1,7-dimethyl-1H-pyrazolo[4,3-c]quinolin-8-yl)(2-(3-fluoro-5-(thiazol-4-yl)pyridin-2-yl)-4-methylpyrazolidin-1-yl)methanone]	–	5.3	25	21.24	531	–
Cc1cc2nc(N)c3cnn(C)c3c2cc1C(=O)N1CC(C)CN1c1ncc(C2CC2)cc1F (centres unmarked) [Example 489]	–	–	54	26.04	1410	4.8
COC(C)(C)C#Cc1cnc(N2CC(C)CN2C(=O)c2cc3c(cc2C)nc(N)c2cnn(C)c23)c(F)c1 (centres unmarked) [Example 491, (4-amino-1,7-dimethyl-1H-pyrazolo[4,3-c]quinolin-8-yl)(2-(3-fluoro-5-(3-methoxy-3-methylbut-1-yn-1-yl)pyridin-2-yl)-4-methylpyrazolidin-1-yl)methanone]	–	8.6	189	11.81	2230	–
Cc1cc2nc(N)c3cnn(C)c3c2cc1C(=O)N1CC(C)CN1c1ncc(C#CCO)cc1F (centres unmarked) [Example 492, (4-amino-1,7-dimethyl-1H-pyrazolo[4,3-c]quinolin-8-yl)(2-(3-fluoro-5-(3-hydroxyprop-1-yn-1-yl)pyridin-2-yl)-4-methylpyrazolidin-1-yl)methanone]	–	3.3	37	52.49	1940	–
Cc1cc2nc(N)c3cnn(C)c3c2cc1C(=O)N1CC(C)CN1c1ncc(C#CC(C)(C)O)cc1F (centres unmarked) [Example 493, (4-amino-1,7-dimethyl-1H-pyrazolo[4,3-c]quinolin-8-yl)(2-(3-fluoro-5-(3-hydroxy-3-methyl-but-1-yn-1-yl)pyridin-2-yl)-4-methylpyrazolidin-1-yl)methanone]	–	5.1	68	27.94	1900	–
C#Cc1cnc(N2CC(C)CN2C(=O)c2cc3c(cc2C)nc(N)c2cnn(C)c23)c(F)c1 (centres unmarked) [Example 494, (4-amino-1,7-dimethyl-1H-pyrazolo[4,3-c]quinolin-8-yl)(2-(5-ethynyl-3-fluoropyridin-2-yl)-4-methylpyrazolidin-1-yl)methanone]	–	4.6	29	34.62	1000	–
Cc1cc2nc(N)c3cnn(C)c3c2cc1C(=O)N1CC(C)CN1c1ncc(C#CCF)cc1F (centres unmarked) [Example 495, (4-amino-1,7-dimethyl-1H-pyrazolo[4,3-c]quinolin-8-yl)(2-(3-fluoro-5-(3-fluoroprop-1-yn-1-yl)pyridin-2-yl)-4-methylpyrazolidin-1-yl)methanone]	–	15	69	24.00	1660	–
Cc1cc2nc(N)c3ccncc3c2cc1C(=O)N1CC(C)CN1c1ncccc1F (centres unmarked) [Example 502, (5-amino-8-methylbenzo[C] [2,6]naphthyridin-9-yl)(2-(3-fluoropyridin-2-yl)-4-methylpyrazolidin-1-yl)methanone]	–	5.2	140	10.79	1510	–
[2H]C([2H])([2H])n1ncc2c(N)nc3cc(C)c(C(=O)N4CC(C)CN4c4ncccc4F)cc3c21 (centres unmarked) [Example 507, (4-amino-7-methyl-1-(methyl-D3)-1H-pyrazolo[4,3-c]quinolin-8-yl)(2-(3-fluoropyridin-2-yl)-4-methylpyrazolidin-1-yl)methanone]	–	10.3	38	44.34	1680	–
Cc1cc2nc(N)c3c(C)nn(C)c3c2cc1C(=O)N1CC(C)CN1c1ncccc1F (centres unmarked) [Example 509, (4-amino-1,3,7-trimethyl-1H-pyrazolo[4,3-c]quinolin-8-yl)(2-(3-fluoropyridin-2-yl)-4-methylpyrazolidin-1-yl) methanone]	–	4.3	443	–	> 10000	–
Cc1cc2nc(N)c3c(c2cc1C(=O)N1CC(C)CN1c1ncccc1F)COC3C (centres unmarked) [Example 510]	–	–	222	33.55	7450	4.8
Cc1cc2nc(N)c3c(c2cc1C(=O)N1CC(C)CN1c1ncccc1F)COC3 (centres unmarked) [Example 512, (4-amino-7-methyl-1,3-dihydrofuro[3,4-c]quinolin-8-yl)(2-(3-fluoropyridin-2-yl)-4-methylpyrazolidin-1-yl)methanone]	–	5	259	22.53	5830	–
